From patent publication US20140179624A1, “CYTOPROTECTIVE DERIVATIVES OF AVICIN D AND METHODS OF MAKING AND USING THEREOF” (Research Development Foundation, priority 2012, published 2014)

Legend:
cell cytotoxicity = details: screen of Acacia victoriae compounds; U.S. Pat. No. 6,444,233; cited from earlier work
NF-κB [1] = assay: Inhibition of NF-κB activation (FIG. 2A); assay type: cell-based; details: compared with dexamethasone
IL-6 = assay: Expression of constitutive and TNF-induced IL-6 (FIG. 2B); assay type: cell-based
NF-κB [2] = assay: TNF-induced p(IL6-κB)350hu.IL6P-Luc luciferase reporter in HEK 293T cells with and without GR (FIG. 3); assay type: cell-based
Excerpt: FIG. 3 is graph showing the expression of glucocorticoid receptor (GR) in HEK293T cells with and without GR.
However, TNF-induced activation of p(IL6-κB)350hu.IL6P-Luc was inhibited by both avicin D and Dex in HEK 293T cells transfected with GR (FIG. 3). […] This observation supports the notion that avicins are not able to induce GR transactivation.

[3] = molecular target: T1, glucocorticoid receptor (GR) (Homo sapiens, UniProt P04150); assay: Phosphorylation of GR Ser-211 (FIG. 4); assay type: cell-based; details: even after 16 hours
T1 sequence (P04150 1-777): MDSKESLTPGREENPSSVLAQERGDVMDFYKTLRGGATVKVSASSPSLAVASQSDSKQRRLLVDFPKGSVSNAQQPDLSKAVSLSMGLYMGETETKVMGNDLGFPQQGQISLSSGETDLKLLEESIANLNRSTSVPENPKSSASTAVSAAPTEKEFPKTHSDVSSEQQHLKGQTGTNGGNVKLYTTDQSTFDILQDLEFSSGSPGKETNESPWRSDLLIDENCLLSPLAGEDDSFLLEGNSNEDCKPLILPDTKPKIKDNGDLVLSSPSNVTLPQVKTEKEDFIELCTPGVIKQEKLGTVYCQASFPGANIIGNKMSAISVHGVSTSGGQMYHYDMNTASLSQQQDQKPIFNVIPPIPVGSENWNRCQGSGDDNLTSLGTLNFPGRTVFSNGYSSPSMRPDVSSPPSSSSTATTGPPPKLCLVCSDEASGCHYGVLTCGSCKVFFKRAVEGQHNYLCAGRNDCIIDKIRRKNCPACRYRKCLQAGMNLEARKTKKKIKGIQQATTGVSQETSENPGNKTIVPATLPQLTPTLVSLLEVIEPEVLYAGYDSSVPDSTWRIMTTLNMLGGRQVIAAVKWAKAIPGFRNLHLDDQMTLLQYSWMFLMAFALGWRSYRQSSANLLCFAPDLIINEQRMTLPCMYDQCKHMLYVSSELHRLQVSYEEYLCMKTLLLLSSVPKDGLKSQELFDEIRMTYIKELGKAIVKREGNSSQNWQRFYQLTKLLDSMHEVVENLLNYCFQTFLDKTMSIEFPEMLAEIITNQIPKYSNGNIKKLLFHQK

3T3-L1 cells = assay: Adipogenesis in 3T3-L1 cells; assay type: cell-based
human preadipocytes = assay: Differentiation of human preadipocytes to mature adipocytes; assay type: cell-based
chemotaxis = assay: Inhibition of chemotaxis; assay type: cell-based; details: preliminary data
Excerpt: The compositions described herein contain an effective amount of the one or more avicin derivatives. The amount to be administered can be readily determined by the attending physician based on a variety of factors including, but not limited to, age of the patient, weight of the patient, disease or disorder to be treated, presence of a pre-existing condition, and dosage form to be administered (e.g., immediate release versus modified release dosage form). Typically, the effective amount is from about 0.1 mg/kg/day to about 100 mg/kg/day, more preferably from 0.1 mg/kg/day to 50 mg/kg/day, more preferably from 0.1 mg/kg/day to 25 mg/kg/day, and most preferably from 0.1 mg/kg/day to 10 mg/kg/day. Dosages greater or less than this may be administered depending on the diseases or disorder to be treated.

NF-κB [4] = details: redox-dependant manner; cited from earlier work
[5] = system: NF-E2-related factor 2 (Nrf2); details: redox-dependant manner; cited from earlier work

Structure (SMILES): C=C[C@](C)(O)CC/C=C(\C)C(=O)O[C@H]1[C@H](O)[C@@H](O)[C@H](O[C@@](C)(C=C)CC/C=C(\CO)C(=O)O[C@H]2C[C@]3(C(=O)O[C@@H]4O[C@H](CO)[C@@H](O)[C@H](O)[C@H]4O[C@@H]4O[C@@H](C)[C@H](O[C@@H]5O[C@@H](CO)[C@H](O)[C@H]5O)[C@@H](O[C@@H]5O[C@H](CO)[C@@H](O)[C@H](O)[C@H]5O)[C@H]4O)[C@H](O)C[C@]4(C)C(=CC[C@@H]5[C@@]6(C)CC[C@H](O[C@@H]7O[C@H](CO[C@@H]8O[C@H](C)[C@H](O)[C@H](O)[C@H]8O[C@@H]8OC[C@@H](O)[C@H](O)[C@H]8O)[C@@H](O)[C@H](O)[C@H]7NC(C)=O)C(C)(C)[C@@H]6CC[C@]54C)[C@@H]3CC2(C)C)O[C@@H]1C [avicin G]
- induction of cell cytotoxicity (cell cytotoxicity): significant activity

Structure (SMILES): C=C[C@](C)(O)CC/C=C(\CO)C(=O)O[C@H]1[C@H](O)[C@@H](O)[C@H](O[C@@](C)(C=C)CC/C=C(\CO)C(=O)O[C@H]2C[C@]3(C(=O)O[C@@H]4O[C@H](CO)[C@@H](O)[C@H](O)[C@H]4O[C@@H]4O[C@@H](C)[C@H](O[C@@H]5O[C@@H](CO)[C@H](O)[C@H]5O)[C@@H](O[C@@H]5O[C@H](CO)[C@@H](O)[C@H](O)[C@H]5O)[C@H]4O)[C@H](O)C[C@]4(C)C(=CC[C@@H]5[C@@]6(C)CC[C@H](O[C@@H]7O[C@H](CO[C@@H]8O[C@H](C)[C@H](O)[C@H](O)[C@H]8O[C@@H]8OC[C@@H](O)[C@H](O)[C@H]8O)[C@@H](O)[C@H](O)[C@H]7NC(C)=O)C(C)(C)[C@@H]6CC[C@]54C)[C@@H]3CC2(C)C)O[C@@H]1C [Avicin D]
- activation of NF-κB (NF-κB [1]): inhibits activation of NF-κB in a similar manner to dexamethasone
- expression of constitutive and TNF-induced IL-6 (IL-6): suppresses the expression of both constituitive and TNF-induced IL-6
- TNF-induced activation of p(IL6-κB)350hu.IL6P-Luc (NF-κB [2]; HEK 293T cells transfected with GR): inhibited
- luciferase activity (NF-κB [2]; wild type HEK 293T cells (without GR)): neither avicin D nor dexamethasone had an effect
- phosphorylation of Ser-211 [3]: does not enhance phosphorylation of Ser-211
- PKA-mediated CREB activity (3T3-L1 cells): inhibited PKA-mediated CREB activity
- adipolysis and adipocyte apoptosis (3T3-L1 cells): did not affect
- preadipocyte differentiation (3T3-L1 cells): suppressed preadipocyte differentiation
- adipogenesis (3T3-L1 cells; 3T3-L1 cells): inhibit adipogenesis
- intracellular triglyceride level (3T3-L1 cells; 3T3-L1 cells): reduce intracellular triglyceride level in a dose-dependent manner
- expression and secretion of adiponectin (3T3-L1 cells; in adipocytes): increased the expression and secretion of adiponectin
- differentiation of human preadipocytes to mature adipocytes (human preadipocytes): inhibited the differentiation of human preadipocytes to mature adipocytes
- intracellular triglyceride levels (human preadipocytes): reduced intracellular triglyceride levels
- inhibition of chemotaxis (chemotaxis): effective at inhibiting chemotaxis at picomolar and nanomolar concentrations
- induction of cell cytotoxicity (cell cytotoxicity): significant activity
- NF-κB inhibition (NF-κB [4]): inhibit NF-κB
- Nrf2 activation [5]: activate NF-E2-related factor 2 (Nrf2)
